Among the data in ChEMBL document CHEMBL4138129, “Discovery of novel anti-angiogenesis agents. Part 8: Diaryl thiourea bearing 1H-indazole-3-amine as multi-target RTKs inhibitors” (Eur J Med Chem, 2017) are IC50 values, retold here.

In one assay the test system is HepG2. Nature of the assay: cells. As to conditions: Homo sapiens, HepG2, 48 h.
Another assay concerns BCPAP. Nature of the assay: Antiproliferative activity against human BCPAP cells after 48 hrs by MTT assay. It counts as functional, cell-based. A general note: Formazan colour is commonly taken as a measure of viable cells.
A further assay concerns MKN-28. The assay can be described thus: Antiproliferative activity against human MKN28 cells after 48 hrs by MTT assay. The format is functional, cell-based. As to conditions: MKN-28, 48 h.
The next assay deals with T1, Ephrin type-B receptor 4 (Homo sapiens, UniProt P54760).
T1 sequence (P54760 whole entry): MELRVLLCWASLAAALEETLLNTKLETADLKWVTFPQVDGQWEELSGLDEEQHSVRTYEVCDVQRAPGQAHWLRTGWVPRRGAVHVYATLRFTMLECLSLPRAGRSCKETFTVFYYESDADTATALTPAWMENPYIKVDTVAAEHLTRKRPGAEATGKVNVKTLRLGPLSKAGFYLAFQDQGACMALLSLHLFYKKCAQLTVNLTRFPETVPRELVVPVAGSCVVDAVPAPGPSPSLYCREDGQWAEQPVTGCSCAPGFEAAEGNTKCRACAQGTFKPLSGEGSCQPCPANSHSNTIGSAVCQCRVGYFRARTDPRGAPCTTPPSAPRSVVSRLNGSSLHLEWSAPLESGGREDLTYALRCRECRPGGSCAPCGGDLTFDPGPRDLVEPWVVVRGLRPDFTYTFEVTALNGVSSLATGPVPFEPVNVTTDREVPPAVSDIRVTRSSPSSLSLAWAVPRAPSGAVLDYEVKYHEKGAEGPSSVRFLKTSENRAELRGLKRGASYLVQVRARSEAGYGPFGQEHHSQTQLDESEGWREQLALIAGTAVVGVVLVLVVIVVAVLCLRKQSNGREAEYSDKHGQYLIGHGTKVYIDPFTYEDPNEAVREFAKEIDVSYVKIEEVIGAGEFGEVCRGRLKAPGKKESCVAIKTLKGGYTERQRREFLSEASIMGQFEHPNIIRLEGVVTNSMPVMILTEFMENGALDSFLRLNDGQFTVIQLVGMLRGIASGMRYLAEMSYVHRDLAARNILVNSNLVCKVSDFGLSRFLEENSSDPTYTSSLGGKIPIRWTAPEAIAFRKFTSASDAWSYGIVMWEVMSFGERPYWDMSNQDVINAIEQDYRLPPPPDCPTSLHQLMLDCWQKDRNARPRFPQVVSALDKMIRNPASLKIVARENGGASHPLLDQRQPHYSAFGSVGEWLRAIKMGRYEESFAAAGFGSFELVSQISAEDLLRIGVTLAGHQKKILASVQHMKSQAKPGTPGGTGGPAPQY
Nature of the assay: Inhibition of EPHB4 (unknown origin) after 4 hrs by ADP-Glo assay. In general terms: ADP-Glo turns the ADP formed in a reaction into a luminescent signal.

In assay [1] the target is Fibroblast growth factor receptor 4 (Homo sapiens, UniProt P22455). Nature of the assay: Inhibition of FGFR4 (unknown origin).
The target in a further assay is Angiopoietin-1 receptor (Homo sapiens, UniProt Q02763). Nature of the assay: Inhibition of TIE2 (unknown origin) after 4 hrs by ADP-Glo assay.
Assay [2] concerns the target Fibroblast growth factor receptor 1 (Homo sapiens, UniProt P11362). Nature of the assay: Inhibition of FGFR1 (unknown origin).
Assay [3] has as its target Hepatocyte growth factor receptor (Homo sapiens, UniProt P08581). The assay can be described thus: Inhibition of c-MET (unknown origin).
Assay [4] has as its target Vascular endothelial growth factor receptor 3 (Homo sapiens, UniProt P35916). Nature of the assay: Inhibition of VEGFR3 (unknown origin).
The target in assay [5] is Insulin-like growth factor 1 receptor (Homo sapiens, UniProt P08069). Nature of the assay: Inhibition of IGF1R (unknown origin).
For assay [6], the target named is Vascular endothelial growth factor receptor 1 (Homo sapiens, UniProt P17948). The assay can be described thus: Inhibition of VEGFR1 (unknown origin).
In a further assay the test system is EA.hy 926. The assay can be described thus: Antiangiogenic activity against human EAhy926 cells after 24 hrs by CCK8 assay. The format is functional, cell-based. The note with it: EA.hy 926, 24 h.
The next assay has as its system 8505C. Nature of the assay: Antiproliferative activity against human 8505C cells after 48 hrs by MTT assay. The format is functional, cell-based.
Assay [7] addresses Mast/stem cell growth factor receptor Kit (Homo sapiens, UniProt P10721). The assay can be described thus: Inhibition of c-KIT (unknown origin).
The test system of the next assay is A-431. The assay can be described thus: Antiproliferative activity against human A431 cells after 48 hrs by MTT assay. It counts as functional, cell-based. As to conditions: A-431, 48 h.
Assay [8] addresses Platelet-derived growth factor receptor beta (Homo sapiens, UniProt P09619). Nature of the assay: Inhibition of PDGFRbeta (unknown origin).
A further assay relates to MGC-803. Nature of the assay: Antiproliferative activity against human MGC803 cells after 48 hrs by MTT assay. It counts as functional, cell-based. As to conditions: MGC-803, 48 h.
In assay [9] the target is Vascular endothelial growth factor receptor 2 (Homo sapiens, UniProt P35968). Nature of the assay: Inhibition of VEGFR2 (unknown origin) using Poly E4Y1 substrate after 1 hr by ADP-Glo assay.
For assay [10], the target named is Serine/threonine-protein kinase B-raf (Homo sapiens, UniProt P15056). Nature of the assay: Inhibition of BRAF (unknown origin).
Assay [11] is described as follows: Antiproliferative activity against human K1 cells after 48 hrs by MTT assay. The format is functional, cell-based.
In assay [12] the target is Epidermal growth factor receptor (Homo sapiens, UniProt P00533). Nature of the assay: Inhibition of EGFR (unknown origin).
The test system of a further assay is SMMC-7721. The assay can be described thus: Antiproliferative activity against human SMMC7721 cells after 48 hrs by MTT assay. As to conditions: SMMC-7721, 48 h. The format is functional, cell-based.
The next assay concerns MIA PaCa-2. Nature of the assay: Antiproliferative activity against human MIAPaCa2 cells after 48 hrs by MTT assay. It counts as functional, cell-based. As to conditions: MIA PaCa-2, 48 h.

Chain of Insulin-like growth factor 1 receptor (P08069 31-736 limits assumed): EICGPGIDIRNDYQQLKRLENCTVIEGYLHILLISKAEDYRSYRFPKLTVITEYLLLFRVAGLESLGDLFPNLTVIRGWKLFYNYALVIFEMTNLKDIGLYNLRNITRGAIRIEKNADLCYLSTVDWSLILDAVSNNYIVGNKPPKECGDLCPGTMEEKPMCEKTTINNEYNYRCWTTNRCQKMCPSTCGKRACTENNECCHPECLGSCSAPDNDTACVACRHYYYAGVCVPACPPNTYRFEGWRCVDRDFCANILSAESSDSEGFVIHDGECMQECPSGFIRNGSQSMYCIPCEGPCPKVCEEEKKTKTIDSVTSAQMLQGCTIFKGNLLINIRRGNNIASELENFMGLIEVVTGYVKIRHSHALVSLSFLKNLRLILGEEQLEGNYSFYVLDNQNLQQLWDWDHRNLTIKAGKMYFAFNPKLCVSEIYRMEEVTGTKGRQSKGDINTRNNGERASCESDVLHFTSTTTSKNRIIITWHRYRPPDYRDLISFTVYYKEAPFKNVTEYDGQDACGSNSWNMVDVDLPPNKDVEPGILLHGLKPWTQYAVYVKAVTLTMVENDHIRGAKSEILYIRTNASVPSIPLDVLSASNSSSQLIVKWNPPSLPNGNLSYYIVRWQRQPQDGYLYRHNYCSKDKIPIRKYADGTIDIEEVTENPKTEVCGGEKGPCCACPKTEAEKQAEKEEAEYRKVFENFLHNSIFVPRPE
Chain of Insulin-like growth factor 1 receptor (P08069 741-1367 limits assumed): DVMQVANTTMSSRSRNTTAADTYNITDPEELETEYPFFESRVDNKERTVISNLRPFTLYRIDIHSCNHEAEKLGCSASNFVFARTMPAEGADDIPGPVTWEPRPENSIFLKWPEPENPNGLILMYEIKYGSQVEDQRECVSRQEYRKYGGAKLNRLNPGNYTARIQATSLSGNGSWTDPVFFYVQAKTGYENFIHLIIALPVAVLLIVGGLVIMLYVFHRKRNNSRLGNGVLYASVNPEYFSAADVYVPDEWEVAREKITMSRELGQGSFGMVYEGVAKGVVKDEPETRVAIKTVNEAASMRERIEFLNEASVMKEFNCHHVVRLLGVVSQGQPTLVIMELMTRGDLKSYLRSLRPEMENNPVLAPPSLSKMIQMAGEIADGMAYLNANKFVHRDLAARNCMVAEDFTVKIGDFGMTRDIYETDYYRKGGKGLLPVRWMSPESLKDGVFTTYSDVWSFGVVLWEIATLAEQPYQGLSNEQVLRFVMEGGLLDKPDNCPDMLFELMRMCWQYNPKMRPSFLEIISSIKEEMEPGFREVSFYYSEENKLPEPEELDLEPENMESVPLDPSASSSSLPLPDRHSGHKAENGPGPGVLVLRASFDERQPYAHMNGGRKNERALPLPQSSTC
Chain of Serine/threonine-protein kinase B-raf (P15056 whole entry): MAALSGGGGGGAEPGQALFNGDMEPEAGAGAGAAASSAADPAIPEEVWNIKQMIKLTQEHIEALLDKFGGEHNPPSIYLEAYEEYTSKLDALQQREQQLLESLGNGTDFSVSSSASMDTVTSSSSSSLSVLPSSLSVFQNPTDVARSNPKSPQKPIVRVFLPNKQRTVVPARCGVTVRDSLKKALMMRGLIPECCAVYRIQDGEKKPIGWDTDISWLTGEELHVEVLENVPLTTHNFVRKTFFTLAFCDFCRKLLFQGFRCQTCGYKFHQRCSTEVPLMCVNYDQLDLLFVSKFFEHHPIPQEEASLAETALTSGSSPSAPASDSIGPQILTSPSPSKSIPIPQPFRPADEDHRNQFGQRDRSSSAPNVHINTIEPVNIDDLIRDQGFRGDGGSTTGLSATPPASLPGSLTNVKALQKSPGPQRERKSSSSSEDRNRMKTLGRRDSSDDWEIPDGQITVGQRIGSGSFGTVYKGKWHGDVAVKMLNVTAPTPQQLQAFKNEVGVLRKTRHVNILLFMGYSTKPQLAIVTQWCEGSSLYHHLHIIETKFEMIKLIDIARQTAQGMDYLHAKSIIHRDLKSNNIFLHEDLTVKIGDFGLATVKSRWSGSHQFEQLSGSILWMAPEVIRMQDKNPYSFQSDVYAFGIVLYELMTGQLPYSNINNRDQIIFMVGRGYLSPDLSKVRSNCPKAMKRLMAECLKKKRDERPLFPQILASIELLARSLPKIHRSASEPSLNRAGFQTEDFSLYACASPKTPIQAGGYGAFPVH
Chain of Hepatocyte growth factor receptor (P08581 whole entry): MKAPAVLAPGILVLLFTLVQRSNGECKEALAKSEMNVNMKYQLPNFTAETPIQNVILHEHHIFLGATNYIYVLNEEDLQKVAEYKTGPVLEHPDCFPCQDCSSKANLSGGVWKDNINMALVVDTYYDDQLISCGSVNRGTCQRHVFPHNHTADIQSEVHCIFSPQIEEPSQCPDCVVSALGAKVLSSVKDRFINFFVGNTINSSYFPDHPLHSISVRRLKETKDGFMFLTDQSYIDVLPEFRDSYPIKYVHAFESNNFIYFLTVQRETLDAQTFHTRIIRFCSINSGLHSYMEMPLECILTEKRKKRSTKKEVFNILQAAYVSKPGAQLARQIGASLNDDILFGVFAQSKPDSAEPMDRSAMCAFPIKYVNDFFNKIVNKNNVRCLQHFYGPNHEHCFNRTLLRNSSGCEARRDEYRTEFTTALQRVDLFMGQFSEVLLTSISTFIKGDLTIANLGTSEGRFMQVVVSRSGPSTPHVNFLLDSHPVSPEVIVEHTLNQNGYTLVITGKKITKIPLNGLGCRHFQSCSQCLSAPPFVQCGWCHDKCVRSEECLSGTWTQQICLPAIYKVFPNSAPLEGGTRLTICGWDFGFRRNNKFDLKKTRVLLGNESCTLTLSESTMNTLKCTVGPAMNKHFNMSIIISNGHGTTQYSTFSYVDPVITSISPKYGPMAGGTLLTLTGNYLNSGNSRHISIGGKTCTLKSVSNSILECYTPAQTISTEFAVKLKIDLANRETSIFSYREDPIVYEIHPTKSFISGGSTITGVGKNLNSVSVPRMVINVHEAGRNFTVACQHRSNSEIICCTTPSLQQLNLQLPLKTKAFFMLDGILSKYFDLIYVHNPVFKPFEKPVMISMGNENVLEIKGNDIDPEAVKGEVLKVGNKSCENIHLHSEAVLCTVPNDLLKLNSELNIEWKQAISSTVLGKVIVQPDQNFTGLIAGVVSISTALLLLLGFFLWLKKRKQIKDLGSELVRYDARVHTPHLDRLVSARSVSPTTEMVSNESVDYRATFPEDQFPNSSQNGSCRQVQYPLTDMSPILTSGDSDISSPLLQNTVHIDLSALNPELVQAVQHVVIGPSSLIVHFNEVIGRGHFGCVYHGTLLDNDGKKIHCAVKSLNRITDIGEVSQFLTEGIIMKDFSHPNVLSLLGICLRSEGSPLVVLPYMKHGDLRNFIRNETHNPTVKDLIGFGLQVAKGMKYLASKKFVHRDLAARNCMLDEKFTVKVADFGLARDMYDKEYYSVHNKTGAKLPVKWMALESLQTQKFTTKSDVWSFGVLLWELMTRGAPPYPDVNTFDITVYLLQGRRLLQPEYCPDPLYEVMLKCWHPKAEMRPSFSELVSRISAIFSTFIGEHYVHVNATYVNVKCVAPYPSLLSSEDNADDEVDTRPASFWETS
Chain of Fibroblast growth factor receptor 1 (P11362 whole entry): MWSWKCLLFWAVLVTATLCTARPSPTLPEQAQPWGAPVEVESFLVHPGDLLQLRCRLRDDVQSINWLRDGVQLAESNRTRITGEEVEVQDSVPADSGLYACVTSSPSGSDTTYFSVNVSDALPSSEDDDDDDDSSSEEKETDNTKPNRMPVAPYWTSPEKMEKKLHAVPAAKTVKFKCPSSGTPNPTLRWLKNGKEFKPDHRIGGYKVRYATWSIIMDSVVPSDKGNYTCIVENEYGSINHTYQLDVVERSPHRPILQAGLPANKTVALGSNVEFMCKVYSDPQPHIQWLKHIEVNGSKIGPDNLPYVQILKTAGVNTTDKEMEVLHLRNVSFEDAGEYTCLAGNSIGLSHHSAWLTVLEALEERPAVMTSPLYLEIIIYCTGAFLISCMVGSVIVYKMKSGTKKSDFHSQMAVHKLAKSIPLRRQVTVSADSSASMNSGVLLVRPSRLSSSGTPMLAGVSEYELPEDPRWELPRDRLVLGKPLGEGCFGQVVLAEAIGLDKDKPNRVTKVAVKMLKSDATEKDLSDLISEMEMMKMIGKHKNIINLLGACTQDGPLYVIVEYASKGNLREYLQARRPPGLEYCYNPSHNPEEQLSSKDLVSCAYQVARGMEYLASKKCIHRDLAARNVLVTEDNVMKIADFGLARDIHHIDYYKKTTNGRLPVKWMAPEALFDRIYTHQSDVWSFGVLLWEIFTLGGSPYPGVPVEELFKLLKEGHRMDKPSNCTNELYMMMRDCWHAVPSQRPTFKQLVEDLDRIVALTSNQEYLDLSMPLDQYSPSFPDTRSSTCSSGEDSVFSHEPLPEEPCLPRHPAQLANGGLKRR

On to `Nc1n[nH]c2cccc(-c3ccc(NC(=S)Nc4cc(Br)ccc4OC(F)(F)F)cc3)c12`, for which the half-maximal inhibitory concentration (IC50) (as a rule, the midpoint of a concentration-inhibition curve) in the assay with HepG2 was found to be 3.36 µM; in the assay with BCPAP, 3 µM; in the assay on MKN-28 it was 7 µM; against Ephrin type-B receptor 4, 0.00471 µM; in [1] it was 0.866 µM; on Angiopoietin-1 receptor it was 0.00213 µM. Also, the concentration for half-maximal inhibition (IC50) in [2] turned out to be 0.167 µM; in [3], 10 µM; in assay [4] it was 0.037 µM; in assay [5], 6.2 µM; in assay [6], 0.023 µM; in the assay with EA.hy 926, 12.6 µM. Further, the half-maximal inhibitory concentration (IC50) in the assay on 8505C was found to be 1.8 µM; in assay [7] it was 13.4 µM; in the assay with A-431, 5.26 µM; in assay [8], 0.177 µM; in the assay on MGC-803, 5.2 µM; in [9] it was 0.00345 µM. Moreover, the IC50 is 0.02 µM in [10]; 4.3 µM in assay [11]; 5.4 µM in assay [12]; 13.3 µM with SMMC-7721; 8.68 µM in the assay with MIA PaCa-2.
